These results are taken from the supplement of paper PMC3493320.

The assay has as its system NCI-H295R. As to the kind of experiment: IC50 (antiproliferative, ATP content). Particulars: 48 h. In short, it runs like this: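 Adrenocortical carcinoma cells were plated at 1500 per well in 1536-well plates in serum-free DMEM with ITS supplement, left overnight, then given library compounds by pin transfer at 8 final concentrations spanning 0.6 nM to 46 µM and held 48 h at 37 °C, 5% CO2. ATP was measured as CellTiter-Glo luminescence after 20 min at room temperature and scaled between vehicle and positive-control wells. A four-parameter logistic model was fitted to each series. The IC50 was taken from these fits, and compounds without a concentration response were recorded as above the top dose.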
By IC50 is commonly meant the concentration that inhibits the measured activity by half. A lower IC50 goes with greater potency in that assay. Take `CC(O)COc1ccccc1` (stereo unspecified): the IC50 is more than 46 µM.
`CCOC(=O)COc1ccc2c(C)c(CCN(CC)CC)c(=O)oc2c1Cl.Cl` showed an IC50 of more than 46 µM.
Take `Cc1ccc(C(C)C)c(O)c1`: the half-maximal inhibitory concentration (IC50) is more than 46 µM.
Then `CC1(O)CCC(C(C)(C)O)CC1` (stereo unspecified), with more than 46 µM; and `CC(C)CCCC(C)NC(C)C` (stereo unspecified), with more than 46 µM; and `CC(=O)N[C@H]1[C@@H](O[C@@H]2C(C(=O)[O-])C[C@@H](O[C@H]3[C@H](C)[C@@H](NS(=O)(=O)O)[C@@H](OC4C(C(=O)[O-])O[C@@H](OC5[C@H]6CO[C@H](O6)[C@H](NS(=O)(=O)[O-])[C@H]5O)[C@H](O)[C@H]4O)O[C@@H]3COS(=O)(=O)O)[C@H](O)[C@H]2O)O[C@H](COS(=O)(=O)O)[C@@H](O[C@@H]2OC(C(=O)[O-])=C[C@H](O)[C@H]2OS(=O)(=O)O)[C@@H]1O.[Na+].[Na+].[Na+].[Na+]` (stereo partly specified), with more than 46 µM.
As for `[C@@]2\1(\C(=C/C(/C=C/1)=O)[C@H](C[C@@H]4[C@@H]2[C@H](C[C@@]3([C@](C(=O)CO)(O)CC[C@H]34)C)O)C)C`, the figure is more than 46 µM; as for `CCCCCCCCCCC(CO)CCCCCCCC` (stereo unspecified), more than 46 µM.
Then `CC(=O)OCC(CCn1cnc2cnc(N)nc21)COC(C)=O`, with more than 46 µM; and `O=CCCCC=O`, with more than 46 µM; and `CS(=O)(=O)c1ccc([C@@H](O)[C@@H](COC(=O)CN)NC(=O)C(Cl)Cl)cc1.Cl`, with more than 46 µM.
In turn, `O=[C@](OCC2=C(F)C(F)=CC(F)=C2F)[C@H]1C(C)(C)[C@@H]1/C=C(Cl)/Cl` came in with an IC50 of more than 46 µM.
Then `Cc1cc(OI)c(C(C)C)cc1-c1cc(C(C)C)c(OI)cc1C`, with more than 46 µM; and `CC(CNC1CCCCC1)OC(=O)c1ccccc1.Cl` (stereo unspecified), with more than 46 µM.
Then `CNC1=Nc2ccc(Cl)cc2C(c2ccccc2)=[N+]([O-])C1`, with more than 46 µM.
Then `CC(=O)[C@H]1CC[C@H]2[C@@H]3C[C@H](C)C4=CC(=O)CC[C@]4(C)[C@H]3[C@@H](O)C[C@]12C`, with more than 46 µM; and `COc1ccc(/C=N/NC(=O)c2ccncc2)cc1OC`, with more than 46 µM; and `O[C@@H]3C\C4=C\C[C@@H]2[C@H](CC[C@]1(C)C(=O)CC[C@H]12)[C@@]4(C)CC3`, with more than 46 µM.
`CC(C)(C)NCC(O)c1ccccc1Cl.Cl` (stereo unspecified) registered an IC50 of more than 46 µM.
As for `CNC(=O)Oc1ccccc1C(=O)Nc1ccccc1`, the figure is more than 46 µM; as for `CN(N=O)C(=O)N[C@@H]1[C@@H](O)[C@H](O)[C@@H](CO)O[C@@H]1O`, more than 46 µM; as for `Cc1ccc(S(=O)(=O)NC(=O)NN2CCCCCC2)cc1`, more than 46 µM.
As for `CCOC(=O)c1cnc2cc(OCC(C)C)c(OCC(C)C)cc2c1O`, the figure is more than 46 µM; as for `CC(C)(CO)[C@@H](O)C(=O)NCCCC(=O)[O-].CC(C)(CO)[C@@H](O)C(=O)NCCCC(=O)[O-].[Ca+2]`, more than 46 µM; as for `O=C(C2)N([C@]([H])1[C@@]([O-])=O)[C@]2([H])O\C1=C/CO.[Li+]`, more than 46 µM.
As for `CC(C)[C@H](N)C(=O)OCCOCn1cnc2c(=O)[nH]c(N)nc21.Cl`, the figure is more than 46 µM.
For the molecule `CCN1C[C@]2(COC)[C@H](O)C[C@H](OC)[C@@]34[C@@H]5C[C@@]6(O)[C@H](OC(=O)c7ccccc7)[C@@H]5[C@@](OC(C)=O)([C@@H]([C@H](OC)[C@H]23)[C@H]14)[C@@H](O)[C@@H]6OC`, the IC50 was more than 46 µM.
As for `CCCCCCC[N+](CC)(CC)CCCCc1ccc(Cl)cc1.Cc1ccc(S(=O)(=O)[O-])cc1`, the figure is more than 46 µM; as for `CNC[C@H](O)[C@@H](O)[C@@H](O)[C@H](O)CO.Cc1c(Nc2ncccc2C(=O)O)cccc1C(F)(F)F`, more than 46 µM.
Then `O=C(Oc1cccc2cccnc12)c1ccccc1`, with more than 46 µM; and `O=C(O)c1cc(-c2ccccc2)nc2ccccc12`, with more than 46 µM.
`CC(C)Cn1cnc2c1c(=O)n(C)c(=O)n2C` returned an IC50 of more than 46 µM.
Then `O=C2N1[C@]([C@@]([H])2NC(C3=C(C)ON=C3C(C(Cl)=CC=C4)=C4F)=O)([H])SC(C)(C)[C@@H]1[C@@]([O-])=O.[Na+]`, with more than 46 µM; and `NC/C=C/C(=O)O`, with more than 46 µM.
As for `COc1ccc(Cc2nccc3cc(OC)c(OC)cc23)cc1OC.Cl`, the figure is more than 46 µM; as for `Nc1ccc(S(=O)(=O)Nc2ccc(Cl)nn2)cc1`, more than 46 µM.
Turning to `c1ccc2c(c1)OCC(CN1CCCCC1)O2` (stereo unspecified), the IC50 is more than 46 µM.
Then `CCCCC[C@H](O)/C=C/[C@@H]1[C@@H](C/C=C\CCCC(=O)O)[C@@H](O)C[C@H]1O`, with more than 46 µM.
Then `CCN(CC)CCNC(=O)c1cc(Cl)c(N)cc1OC`, with more than 46 µM.
`O=C(CS(=O)C(c1ccccc1)c1ccccc1)NO` (stereo unspecified) showed an IC50 of more than 46 µM.
As for `CC(CCc1ccccc1)NCC(O)c1ccc(O)c(C(N)=O)c1.Cl` (stereo unspecified), the figure is more than 46 µM.
`CCCCN1CCCC[C@H]1C(=O)Nc1c(C)cccc1C.Cl`: the IC50 is more than 46 µM.
In turn, `CCOc1ccc(/N=C(\C)Nc2ccc(OCC)cc2)cc1` yielded an IC50 of more than 46 µM.
Consider `Cc1c(OCC(F)(F)F)ccnc1CS(=O)c1nc2ccccc2[nH]1` (stereo unspecified), for which the IC50 is more than 46 µM.
In the case of `CCN(CC)CC(=O)Nc1c(C)cccc1C`, the IC50 was more than 46 µM.
As for `c1ccc2c(c1)Sc1ccccc1N2CCN1CCCC1`, the figure is more than 46 µM; as for `CCCCCN(C)CCC(O)(P(=O)([O-])O)P(=O)(O)O.[Na+]`, more than 46 µM; as for `CC[N+]1(C)CCCC(OC(=O)C(O)(c2ccccc2)c2ccccc2)C1.[Br-]` (stereo unspecified), more than 46 µM.
As for `C=CC(N)CCC(=O)O` (stereo unspecified), the figure is more than 46 µM.
Then `COc1cc(N)c(Cl)cc1C(=O)NC1CCN(CCCOc2ccc(F)cc2)CC1OC` (stereo unspecified), with more than 46 µM; and `Cc1cc(=O)oc2cc(O)ccc12`, with more than 46 µM.
Molecule `CO/N=C(\C(=O)N[C@@H]1C(=O)N2C(C(=O)O)=C(Cn3ccc(=N)n3CCO)CS[C@H]12)c1csc(N)n1.O=S(=O)(O)O` yielded an IC50 of more than 46 µM.
As for `CC(C)(C)NCC(O)COc1cccc2c1CCC(=O)N2.Cl` (stereo unspecified), the figure is more than 46 µM.
Then `CC1=NN(c2ccccc2)C(=O)C1`, with more than 46 µM; and `CC(=O)Oc1c(C)c(C)c2c(c1C)CC[C@@](C)(CCC[C@H](C)CCC[C@H](C)CCCC(C)C)O2`, with more than 46 µM.
Then `CCC(=O)O[C@]1(C(=O)SCF)[C@H](C)C[C@H]2C3C[C@H](F)C4=CC(=O)C=C[C@]4(C)[C@@]3(F)[C@@H](O)C[C@@]21C` (stereo partly specified), with more than 46 µM.
`CC1CCc2cc(F)cc3c(=O)c(C(=O)O)cn1c23` (stereo unspecified): the IC50 is more than 46 µM.
As for `O=P([O-])([O-])OC[C@@]1(O)O[C@H](COP(=O)([O-])O)[C@@H](O)[C@@H]1O.[Na+].[Na+].[Na+]`, the figure is more than 46 µM; as for `CC(=O)OC[C@H]2O[C@@H](N1\N=C/C(=O)NC1=O)[C@H](OC(C)=O)[C@@H]2OC(C)=O`, more than 46 µM; as for `O=C1NC(=O)[C@H]2[C@@H]1[C@@H]1C=C[C@H]2C1`, more than 46 µM.
The molecule `CC1CCCC(C)N1NC(=O)c1ccc(Cl)c(S(N)(=O)=O)c1` (stereo unspecified) yielded an IC50 of more than 46 µM.
Molecule `CC(=O)N[C@@H](CC(C)C)C(=O)O` registered an IC50 of more than 46 µM.
Then `Oc1ncnc2[nH]ncc12`, with more than 46 µM.
Then `C=CCc1cc(OC)c(O)c(C(=O)NCCO)c1`, with more than 46 µM.
As for `O=[C@@](OC)[C@H](C2=CC=CC=C2Cl)N1CC(C=CS3)=C3CC1.O=S(O)(O)=O`, the figure is more than 46 µM; as for `COC(=O)[C@@H](N)CS.Cl`, more than 46 µM.
`CCCC(C)(COC(N)=O)COC(=O)NC(C)C` (stereo unspecified) had an IC50 of more than 46 µM.
Then `CCCCC(CC)COC(=O)C=Cc1ccc(OC)cc1` (stereo unspecified), with more than 46 µM.
As for `CC(C)(C)C(=O)Oc1ccc(S(=O)(=O)Nc2ccccc2C(=O)NCC(=O)[O-])cc1.O.O.O.O.[Na+]`, the figure is more than 46 µM.
Then `CCN(CC)CCOc1ccc2nc(N(C)C)sc2c1`, with more than 46 µM; and `Cn1c(=O)c2c(ncn2CC(O)CO)n(C)c1=O` (stereo unspecified), with more than 46 µM; and `CN(C)c1nc(N(C)C)nc(N(C)C)n1`, with more than 46 µM.
As to `CC1(C)O[C@@H]2[C@@H](CO[C@@]3(COS(N)(=O)=O)OC(C)(C)O[C@@H]23)O1`, the IC50 was more than 46 µM.
As for `CC1CC(OC(=O)C(O)c2ccccc2)CC(C)(C)N1C.Cl` (stereo unspecified), the figure is more than 46 µM; as for `COC(=O)N/N=C/c1c[n+]([O-])c2ccccc2[n+]1[O-]`, more than 46 µM; as for `CC(O)C(=O)O.CCOc1ccc2nc3cc(N)ccc3c(N)c2c1.O`, more than 46 µM.
As for `O=c1[nH]cc(F)c(=O)[nH]1`, the figure is more than 46 µM.
As for `CCCCCCCCCCCCCCCC(=O)OC[C@@H](O)[C@H]1OC[C@H](O)[C@H]1O`, the figure is more than 46 µM; as for `[O]=[Cd]`, more than 46 µM; as for `Nc1ncnc2c1ncn2[C@@H]1O[C@H](CO)[C@@H](O)[C@H]1O`, more than 46 µM.
`CC[C@H](C)CCCCC(=O)N[C@@H](CCN)C(=O)N[C@H](C(=O)N[C@@H](CCN)C(=O)N[C@H]1CCNC(=O)[C@H]([C@@H](C)O)NC(=O)[C@H](CCN)NC(=O)[C@H](CCN)NC(=O)[C@H](CC(C)C)NC(=O)[C@@H](CC(C)C)NC(=O)[C@H](CCN)NC1=O)[C@@H](C)O.O=S(=O)(O)O` gave a concentration for half-maximal inhibition (IC50) of more than 46 µM.
As for `CCCCCCCCCCCCCCCC(=O)NCCO`, the figure is more than 46 µM; as for `O[C@]([C@H]3CN(CCC3)CC/C=C(C2=C(C)C=CS2)/C1=C(C)C=CS1)=O.Cl`, more than 46 µM; as for `Nc1cccc2c1CN(C1CCC(=O)NC1=O)C2=O` (stereo unspecified), more than 46 µM.
Then `O=C(CCCN1CCC(O)(c2ccc(Cl)cc2)CC1)c1ccc(F)cc1`, with more than 46 µM.
As for `CC(=O)Oc1cccc(O)c1`, the figure is more than 46 µM.
